{"source": "patent US20110296540A1", "about": "“ASSAY FOR SCREENING ANTIDEPRESSANTS” (priority 2008, published 2011)", "key": {"1A-High and 1A-Low mice": {"tested_on": "1A-High and 1A-Low mice", "test": "Novelty-suppressed feeding paradigm in 1A-High and 1A-Low mice", "assay_type": "in vivo", "conditions": "twenty-five days, 18 mg/kg/day p.o.", "excerpt": "The NSF paradigm is a test of hyponeophagia that measures the latency of a mouse to consume food placed in the middle of a brightly lit, aversive arena."}, "HPA axis": {"tested_on": "HPA axis", "test": "Stress evoked increase of corticosterone levels", "assay_type": "in vivo, mice", "conditions": "acute swim stress; baseline conditions and after chronic corticosterone treatment", "method": "Adult male C57BL/6Ntac mice were exposed to a 6 minutes swim stress. […]. Blood was collected into ice-chilled tubes containing EDTA and centrifuged at 3000 rpm for 10 min (at 4° C.) for separation of plasma, and plasma samples were stored at −80° C. until assayed. […]; Diagnostic Systems Laboratories, Inc. Webster, Tex.; sensitivity limit: 20 ng/ml). ACTH was measured directly in plasma using an ImmuChem™ Double Antibody hACTH 1251 RIA kit (No. 07-106101; MP Biomedicals, LLC, Orangeburg, N.Y.) with a sensitivity limit ˜5.7 pg/ml. All samples were measured simultaneously to reduce inter-assay variability."}, "newborn granule cells": {"tested_on": "newborn granule cells", "test": "Survival and maturation of newborn granule cells (BrdU/DCX/NeuN triple staining)", "assay_type": "in vivo, mice", "method": "Immunohistochemistry and confocal imaging. Mice were anesthetized with ketamine/xylazine (100 and 7 mg/kg, respectively) and transcardially perfused (cold saline, followed by 4% cold paraformaldehyde in PBS). […] Serial sections were cut through the entire hippocampus (Franklin and Paxinos, 1997) using a cryostat and stored in PBS. Immunohistochemistry was performed in the following steps: 2 h incubation in 1:1 formamide/2×SSC at 65° C., 5 min rinse in 2×SSC, 30 min incubation in 2N HCl at 37° C., and 10 min rinse in 0.1M boric acid, pH 8.5, 2 h incubation in 0.1M PBS with 0.3% Triton X-100, and 5% normal donkey serum. Sections were then incubated overnight at 4° C. in primary antibodies for doublecortin (goat; 1:500; Santa Cruz Biotechnology, Santa Cruz, Calif.), bromodeoxyuridine (BrdU; rat; 1:100; Serotec, Oxford, UK), and neuronal-specific nuclear protein (NeuN) (mouse; 1:500; Chemicon, Temecula, Calif.). Biotinylated or fluorescent secondary antibodies were used. All secondary antibodies were purchased from Jackson ImmunoResearch (West Grove, Pa.). DCX staining for Sholl analysis was done as follows: sections were rinsed in PBS, treated with 1% H2O2 in 1:1 PBS and methanol for 15 min to quench endogenous peroxidase activity (and to enhance dendritic staining), incubated in 10% normal donkey serum and 0.3% Triton X-100 for 30 min, and then incubated overnight at 4° C. in primary antibody for doublecortin. After secondary antibody incubation, sections were developed using Vector ABC kit and DAB kit. Bright-field images were taken with a Zeiss (Oberkochen, Germany) Axioplan-2 upright microscope. Stereological procedure was used to quantify labeled cells (Malberg et al., 2000 ? ). All cell counting for triple-stained sections were done using a Zeiss LSM 510 META confocal microscope.\nAs depicted in FIG. 4A, BrdU (75 mg/kg) was given four times over 8 h on day 0 to achieve maximum labeling of proliferating progenitors over a restricted time window. […] Hippocampal sections were triple stained for BrdU, DCX, and NeuN (FIG. 4B,C). Image acquisition and cell counting were performed using a Zeiss LSM META 510 confocal microscopy."}, "SvEv129 mice": {"tested_on": "SvEv129 mice", "test": "Novelty-suppressed feeding test, sham or x-irradiated animals", "assay_type": "in vivo", "conditions": "28 d of fluoxetine; sham animals", "method": "Novelty-suppressed feeding test. […] The floor was covered with ˜2 cm of wooden bedding. Twenty-four hours before behavioral testing, animals were deprived of all food in the home cage. At the time of testing, two food pellets were placed on a piece of round filter paper (12 cm diameter) positioned in the center of the box. The test began immediately after the animal was placed in a corner of the box. The latency to approach the pellet and begin feeding was recorded (maximum time, 5 min). Immediately afterward, the animal was transferred back to its home cage and the amount of food consumed in 5 min was measured. Each mouse was weighed before food deprivation and before testing to assess the percentage of body weight lost.\nIn the NSF paradigm, conflicting motivations are produced by presenting a food-deprived animal with a reward (food) within the context of a novel, aversive environment. The NSF test is among the few behavioral paradigms that can differentiate chronic versus subchronic responses to antidepressant treatments, using the latency to begin eating as an index of antidepressant/anxiety-like behavior."}, "[1]": {"tested_on": "dentate gyrus of the adult mouse hippocampus", "test": "BrdU labeling for proliferation and survival study, corticosterone model", "protocol": "After anesthesia with ketamine (100 mg/kg), mice were perfused transcardially (cold saline for 2 min, followed by 4% cold paraformaldehyde at 4° C.). […] For DAB staining, sections were mounted on slides and boiled in citric acid (pH 6.0) for 5 min, rinsed with PBS, and treated with 0.01% trypsin in Tris/CaCl2 for 10 min. Brain sections were incubated for 30 min with 2N HCl and blocked with 5% NGS. Sections were then incubated overnight at room temperature with anti-mouse BrdU (1:100). After washing with PBS, sections were incubated for 1 hr with secondary antibody (1:200 biotinylated goat anti-mouse) followed by amplification with an avidinbiotin complex. The staining was visualized with DAB."}, "C57BL/6Ntac mice [2]": {"tested_on": "C57BL/6Ntac mice", "test": "Home cage activity", "assay_type": "in vivo", "conditions": "chronic antidepressant treatment (fluoxetine 18 mg/kg/day)", "method": "Home cage activity Home cage activity was quantified using the ActiV-Meter (Bioseb, France) over a 24 hours period. During the experiment, food and water were provided ad libitum. Various parameters such as activity time (sec), ambulatory distance (cm) and inactivity duration (calculated from the difference between immobility and motionless activity duration while the animal is eating or scratching) were recorded. The open field paradigm, the novelty suppressed feeding, the forced swim test The procedure for each behavioral test, i.e. the open field paradigm, the novelty suppressed feeding, the forced swim test, is described in the materials and methods section."}, "C57BL/6Ntac mice [3]": {"tested_on": "C57BL/6Ntac mice", "test": "Forced Swim Test, chronic corticosterone model", "assay_type": "in vivo", "conditions": "for immobility duration (FST): mean±SEM"}, "C57BL/6Ntac mice [4]": {"tested_on": "C57BL/6Ntac mice", "test": "Changes in coat state"}, "C57BL/6Ntac mice [5]": {"tested_on": "C57BL/6Ntac mice", "test": "Splash test (grooming)", "assay_type": "in vivo", "conditions": "corticosterone, without or with 3 weeks of fluoxetine 18 mg/kg/day; mean±SEM", "method": "This test consisted in squirting 200 ul of a 10% sucrose solution on the mouse's snout. The grooming duration and grooming frequency were then recorded."}, "[6]": {"conditions": "after 3 weeks of fluoxetine, mean±SEM"}}}
{"molecule": "CNCCC(Oc1ccc(C(F)(F)F)cc1)c1ccccc1", "note": "(stereo not drawn) [fluoxetine]", "values": [{"measurement": "latency to feed (NSF), response to fluoxetine", "setting": "1A-High and 1A-Low mice; 1A-High mice", "result": "no response"}, {"measurement": "latency to feed (NSF), response to fluoxetine", "setting": "1A-High and 1A-Low mice; 1A-Low mice", "result": "responded robustly"}, {"measurement": "stress induced corticosterone levels", "setting": "HPA axis", "result": "had no effect"}, {"measurement": "number of BrdU+NeuN+DCX+ cells", "setting": "newborn granule cells; 3 and 4 weeks of fluoxetine", "result": "did not have an effect"}, {"measurement": "number of cells expressing both BrdU and NeuN", "setting": "newborn granule cells; 3 and 4 weeks of fluoxetine", "result": "also increased"}, {"measurement": "pool of mature BrdU+NeuN+DCX− cells", "setting": "newborn granule cells; 3 and 4 weeks of fluoxetine", "result": "significantly increased"}, {"measurement": "total number of BrdU+ cells in the GCL (survival)", "setting": "newborn granule cells; 3 and 4 weeks of fluoxetine begun 24 h after BrdU", "result": "significantly increased"}, {"measurement": "proportion of BrdU cells that are NeuN+", "setting": "newborn granule cells; 5 d of fluoxetine", "result": "did not change"}, {"measurement": "transition of BrdU immature cells from DCX+NeuN− stage to DCX+NeuN+ stage", "setting": "newborn granule cells; 5 d of fluoxetine", "result": "did not change"}, {"measurement": "proportion of BrdU+NeuN+ cells that ceased to express DCX", "setting": "newborn granule cells; [6]", "result": "39.24±1.78"}, {"measurement": "proportion of BrdU+NeuN+ cells that express DCX", "setting": "newborn granule cells; [6]", "result": "51.64±3.71", "unit": "%"}, {"measurement": "survival of immature neurons as measured by BrdU", "setting": "newborn granule cells; subchronic, 5 d", "result": "did not change"}, {"measurement": "latency to feed (NSF)", "setting": "SvEv129 mice", "result": "reduced latency to feed"}, {"measurement": "change in cell proliferation induced by corticosterone", "setting": "[1]; 3 weeks of fluoxetine 18 mg/kg/day", "result": "completely reversed"}, {"measurement": "effect of fluoxetine on survival", "setting": "[1]; in the presence of corticosterone, compared with controls", "result": "even more pronounced"}, {"measurement": "hippocampal cell proliferation", "setting": "[1]; non-corticosterone treated C57BL/6Ntac mice, chronic fluoxetine", "result": "did not affect"}, {"measurement": "corticosterone-induced decreased home cage activity and flattened circadian rhythm", "setting": "C57BL/6Ntac mice [2]", "result": "is not reversed"}, {"measurement": "immobility duration (FST)", "setting": "C57BL/6Ntac mice [3]; corticosterone treated animals, alone or with antidepressant", "result": 311.4, "unit": "s"}, {"measurement": "immobility duration (FST)", "setting": "C57BL/6Ntac mice [3]; non-corticosterone treated animals", "result": 302.9, "unit": "s"}, {"measurement": "duration of immobility (FST), effect", "setting": "C57BL/6Ntac mice [3]; two-way ANOVA, corticosterone 7 weeks, antidepressants last 3 weeks", "result": "decreased"}, {"measurement": "deterioration of the coat state induced by chronic corticosterone", "setting": "C57BL/6Ntac mice [4]; 3 week fluoxetine regimen", "result": "reversed"}, {"measurement": "coat state total score (sum of five body parts)", "setting": "C57BL/6Ntac mice [4]; chronic corticosterone, without or with 3 week fluoxetine, mean±SEM", "result": "1.80±0.08"}, {"measurement": "grooming duration (splash test)", "setting": "C57BL/6Ntac mice [5]", "result": 99.8, "unit": "s"}, {"measurement": "grooming frequency (splash test)", "setting": "C57BL/6Ntac mice [5]", "result": "9±1"}]}
